Assay results reported in publication PMC2000878, “Module structure of interphotoreceptor retinoid-binding protein (IRBP) may provide bases for its complex role in the visual cycle – structure/function study of Xenopus IRBP” (BMC Biochemistry, 2007).
Read-outs that look alike come from different tables or passages of the source.

Tests used:
Xenopus IRBP Module 1 = Xenopus IRBP Module 1 (Xenopus laevis, UniProt Q7SZI7); experiment: Fluorometric titration (enhancement, quenching); type: binding; parameters: cDNAs corresponding to the full-length IRBP, module 1, and module 2 were expressed in pThioHis; modules 3 and 4 were expressed in pTrxFus; made in house; host or cells: E. coli Top10 (pThioHis)
Sequence of Xenopus IRBP Module 1 (Q7SZI7 23-315): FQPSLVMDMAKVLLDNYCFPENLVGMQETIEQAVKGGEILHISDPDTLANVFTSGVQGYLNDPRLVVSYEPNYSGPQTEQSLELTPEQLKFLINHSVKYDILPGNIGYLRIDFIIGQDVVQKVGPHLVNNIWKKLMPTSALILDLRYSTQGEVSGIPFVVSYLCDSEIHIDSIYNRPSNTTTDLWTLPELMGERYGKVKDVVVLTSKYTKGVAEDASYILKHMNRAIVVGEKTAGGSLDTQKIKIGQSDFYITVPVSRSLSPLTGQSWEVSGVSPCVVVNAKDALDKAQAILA
Description: (§1) Enhancement of retinol fluorescence and quenching of the intrinsic protein fluorescence were used to monitor binding of all-trans retinol to the recombinant IRBPs. We previously derived an equation that is generally useful for describing such quantum yield changes that are consequent upon ligand binding. This equation has been previously applied to the analysis of binding by monitoring the enhancement of retinol fluorescence. In this case, where excitation is at 330 nm and emission is monitored at 480, the fluorescence enhancement (Fenh) depends on the total retinol concentration (Rt), the dissociation constant (Kd ^all-trans), the number of retinol-binding sites per protein molecule (N) and the total protein concentration (Pt).
(§2) Assuming that there is a single type of noninteracting site on the protein, (Fenh) is expected to be linearly related to the concentration of bound retinol molecules. Fenh is given by the relation
(§3) Fenh=C1+C2[Rtall−trans−(Rtall−trans+NPt+Kdall−trans)^2−4NPtRtall−trans] MathType@MTEF@5@5@+=feaafiart1ev1aaatCvAUfKttLearuWrP9MDH5MBPbIqV92AaeXatLxBI9gBaebbnrfifHhDYfgasaacH8akY=wiFfYdH8Gipec8Eeeu0xXdbba9frFj0=OqFfea0dXdd9vqai=hGuQ8kuc9pgc9s8qqaq=dirpe0xb9q8qiLsFr0=vr0=vr0dc8meaabaqaciaacaGaaeqabaqabeGadaaakeaacqWGgbGrdaWgaaWcbaGaemyzauMaemOBa4MaemiAaGgabeaakiabg2da9iabdoeadnaaBaaaleaacqaIXaqmaeqaaOGaey4kaSIaem4qam0aaSbaaSqaaiabikdaYaqabaGcdaWadaqaaiabdkfasnaaDaaaleaacqWG0baDaeaacqWGHbqycqWGSbaBcqWGSbaBcqGHsislcqWG0baDcqWGYbGCcqWGHbqycqWGUbGBcqWGZbWCaaGccqGHsisldaGcaaqaamaabmaabaGaemOuai1aa0baaSqaaiabdsha0bqaaiabdggaHjabdYgaSjabdYgaSjabgkHiTiabdsha0jabdkhaYjabdggaHjabd6gaUjabdohaZbaakiabgUcaRiabd6eaojabdcfaqnaaBaaaleaacqWG0baDaeqaaOGaey4kaSIaem4saS0aa0baaSqaaiabdsgaKbqaaiabdggaHjabdYgaSjabdYgaSjabgkHiTiabdsha0jabdkhaYjabdggaHjabd6gaUjabdohaZbaaaOGaayjkaiaawMcaamaaCaaaleqabaGaeGOmaidaaOGaeyOeI0IaeGinaqJaemOta4Kaemiuaa1aaSbaaSqaaiabdsha0bqabaGccqWGsbGudaqhaaWcbaGaemiDaqhabaGaemyyaeMaemiBaWMaemiBaWMaeyOeI0IaemiDaqNaemOCaiNaemyyaeMaemOBa4Maem4CamhaaaqabaaakiaawUfacaGLDbaaaaa@8490@
(§4) The equation was fit to the data by nonlinear least-squares analysis. To follow the quenching of the protein's intrinsic fluorescence the excitation and emission wavelengths were set to 280 nm and 340 nm, respectively, while the protein was titrated with all-trans retinol. For the quenching studies the inner filter effect was accounted for by graphical correction as previously described. Fluorescence measurements were made using an SLM 8000TM C photon counting spectrofluorometer corrected for wavelength dependence of source energy and detector response.

Xenopus IRBP Module 3 = target: T1, Xenopus IRBP Module 3 (Xenopus laevis, UniProt Q7SZI7); experiment: Fluorometric titration (enhancement, quenching); type: binding
T1 construct: cDNAs corresponding to the full-length IRBP, module 1, and module 2 were expressed in pThioHis; modules 3 and 4 were expressed in pTrxFus; made in house; host or cells: E. coli GI724 / GI698 (pTrxFus)
T1 sequence (Q7SZI7 616-922): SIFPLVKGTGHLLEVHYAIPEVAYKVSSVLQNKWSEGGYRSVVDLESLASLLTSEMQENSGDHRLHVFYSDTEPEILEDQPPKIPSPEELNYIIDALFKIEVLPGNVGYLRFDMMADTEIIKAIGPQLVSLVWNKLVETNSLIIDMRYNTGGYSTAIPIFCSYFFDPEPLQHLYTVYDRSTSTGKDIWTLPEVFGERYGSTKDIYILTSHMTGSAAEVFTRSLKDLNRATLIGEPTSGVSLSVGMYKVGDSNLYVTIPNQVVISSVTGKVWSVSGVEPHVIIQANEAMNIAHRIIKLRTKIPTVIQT
Description: as §1, §2, §3, §4

Xenopus IRBP Module 4 = target: T2, Xenopus IRBP Module 4 (Xenopus laevis, UniProt Q7SZI7); experiment: Fluorometric titration (enhancement, quenching); type: binding
T2 construct: cDNAs corresponding to the full-length IRBP, module 1, and module 2 were expressed in pThioHis; modules 3 and 4 were expressed in pTrxFus; made in house; host or cells: E. coli GI724 / GI698 (pTrxFus)
T2 sequence (Q7SZI7 923-1219): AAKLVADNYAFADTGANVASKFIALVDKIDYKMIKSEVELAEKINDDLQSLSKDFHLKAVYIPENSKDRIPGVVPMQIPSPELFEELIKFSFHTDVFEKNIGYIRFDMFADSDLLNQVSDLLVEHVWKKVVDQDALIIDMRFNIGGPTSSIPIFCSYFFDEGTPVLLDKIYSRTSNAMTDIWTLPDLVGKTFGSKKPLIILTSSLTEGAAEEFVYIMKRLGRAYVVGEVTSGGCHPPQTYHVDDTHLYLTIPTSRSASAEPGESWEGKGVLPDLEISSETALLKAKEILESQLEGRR
Description: as §1, §2, §3, §4

Xenopus IRBP Module 2 = target: T3, Xenopus IRBP Module 2 (Xenopus laevis, UniProt Q7SZI7); parameters: method as in Loew et al. Exp Eye Res. 2001, 73:257–264; conditions: ref Loew et al. Exp Eye Res. 2001, 73:257–264, cited from earlier work
T3 construct: cDNAs corresponding to the full-length IRBP, module 1, and module 2 were expressed in pThioHis; modules 3 and 4 were expressed in pTrxFus; made in house; host or cells: E. coli Top10 (pThioHis)
T3 sequence (Q7SZI7 319-617 limits assumed): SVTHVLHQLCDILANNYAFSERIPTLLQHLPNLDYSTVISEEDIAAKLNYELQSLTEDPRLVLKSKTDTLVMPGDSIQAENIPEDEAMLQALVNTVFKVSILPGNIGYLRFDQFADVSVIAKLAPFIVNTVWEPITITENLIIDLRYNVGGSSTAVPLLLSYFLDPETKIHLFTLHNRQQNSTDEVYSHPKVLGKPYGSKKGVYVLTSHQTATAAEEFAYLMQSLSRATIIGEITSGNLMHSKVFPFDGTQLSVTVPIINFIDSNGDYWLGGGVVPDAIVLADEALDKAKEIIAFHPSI

full-length Xenopus IRBP = target: T4, full-length Xenopus IRBP (Xenopus laevis, UniProt Q7SZI7); experiment: Fluorometric titration (ligand fluorescence enhancement, protein quenching, energy transfer); type: binding
T4 construct: We expressed the full-length IRBP as well as its individual modules as thioredoxin-fusion proteins using pTrxFus and pThioHis vectors; made in house; host or cells: E. coli Top10 (pThioHis)
T4 sequence (Q7SZI7 23-1219): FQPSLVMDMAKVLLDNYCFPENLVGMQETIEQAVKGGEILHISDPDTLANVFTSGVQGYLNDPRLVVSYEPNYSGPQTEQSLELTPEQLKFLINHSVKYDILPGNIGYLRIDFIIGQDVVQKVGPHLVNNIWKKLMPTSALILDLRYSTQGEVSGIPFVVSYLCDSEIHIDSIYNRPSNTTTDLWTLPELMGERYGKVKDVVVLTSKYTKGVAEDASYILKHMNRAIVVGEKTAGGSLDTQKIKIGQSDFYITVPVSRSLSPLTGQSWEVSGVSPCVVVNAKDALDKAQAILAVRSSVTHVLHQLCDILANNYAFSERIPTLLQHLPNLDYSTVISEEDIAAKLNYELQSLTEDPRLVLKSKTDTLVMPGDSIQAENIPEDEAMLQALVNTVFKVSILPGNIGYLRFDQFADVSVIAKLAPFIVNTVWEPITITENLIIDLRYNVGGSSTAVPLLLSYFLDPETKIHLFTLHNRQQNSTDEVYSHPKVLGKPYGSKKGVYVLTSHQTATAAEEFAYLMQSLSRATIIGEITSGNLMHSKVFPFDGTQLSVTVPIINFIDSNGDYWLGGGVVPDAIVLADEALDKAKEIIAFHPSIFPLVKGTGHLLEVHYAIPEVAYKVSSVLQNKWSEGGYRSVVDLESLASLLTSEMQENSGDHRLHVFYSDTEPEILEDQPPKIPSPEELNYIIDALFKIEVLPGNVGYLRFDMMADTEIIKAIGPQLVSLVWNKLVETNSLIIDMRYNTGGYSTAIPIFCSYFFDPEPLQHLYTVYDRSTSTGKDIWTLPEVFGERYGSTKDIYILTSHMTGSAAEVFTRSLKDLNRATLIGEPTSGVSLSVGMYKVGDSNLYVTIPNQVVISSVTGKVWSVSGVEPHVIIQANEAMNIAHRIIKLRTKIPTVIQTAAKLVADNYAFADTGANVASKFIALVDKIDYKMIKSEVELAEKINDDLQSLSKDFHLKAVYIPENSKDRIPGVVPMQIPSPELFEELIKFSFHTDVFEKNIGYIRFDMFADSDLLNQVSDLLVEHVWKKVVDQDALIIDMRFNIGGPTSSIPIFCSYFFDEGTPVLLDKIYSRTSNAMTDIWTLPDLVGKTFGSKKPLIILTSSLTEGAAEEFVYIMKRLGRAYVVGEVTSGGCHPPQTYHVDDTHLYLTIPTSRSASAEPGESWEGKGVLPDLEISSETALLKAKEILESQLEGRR
Description: The binding parameters of retinoid-binding proteins including IRBP may be determined by fluorescence spectroscopy. The method utilizes changes in quantum yield occurring during ligand binding. Such changes are represented by enhancement of ligand fluorescence, quenching of intrinsic protein fluorescence, and transfer of energy from protein to bound ligand. Fluorescence enhancement occurs if the quantum yield of the ligand's fluorescence is higher in the hydrophobic environment of the ligand-binding domain compared to that outside of the domain.
as §1, with “Enhancement of retinol fluorescence and quenching of the intrinsic protein fluorescence were used to monitor binding of all-trans retinol to the recombinant IRBPs.” left out, “[…],” for “where excitation is at 330 nm and emission is monitored at 480,”
as §2, §3
The equation was fit to the data by nonlinear least-squares analysis. […] For the quenching studies the inner filter effect was accounted for by graphical correction as previously described. Fluorescence measurements were made using an SLM 8000TM C photon counting spectrofluorometer corrected for wavelength dependence of source energy and detector response.

[1] = 9-AS fluorescence enhancement, ex 360 nm, em 440 nm
[2] = 9-AS fluorescence enhancement, ex 360 nm, em 440 nm, read-out: Kd, Enhancement
[3] = quenching by 9-AS, ex 280 nm, em 340 nm
[4] = quenching by 9-AS, ex 280 nm, em 340 nm, read-out: Kd, Quenching

- Binding sites (N), Enhancement (Xenopus IRBP Module 1; [1]): 2.55 ± 0.24
- Kd (Xenopus IRBP Module 1; [2]): 330 ± 150 nM
- Binding sites (N), Quenching (Xenopus IRBP Module 1; [3]): 0.97 ± 0.19
- Kd (Xenopus IRBP Module 1; [4]): 420 ± 100 nM
- Binding sites (N), Enhancement (Xenopus IRBP Module 3; [1]): 2.76 ± 0.09
- Kd (Xenopus IRBP Module 3; [2]): 160 ± 410 nM
- Binding sites (N), Quenching (Xenopus IRBP Module 3; [3]): 1.06 ± 0.07
- Kd (Xenopus IRBP Module 3; [4]): 190 ± 30 nM
- Binding sites (N), Enhancement (Xenopus IRBP Module 4; [1]): 2.23 ± 0.09
- Kd (Xenopus IRBP Module 4; [2]): 82 ± 37 nM
- Binding sites (N), Quenching (Xenopus IRBP Module 4; [3]): 0.30 ± 0.09
- Kd (Xenopus IRBP Module 4; [4]): 160 ± 40 nM
- Binding sites (N), Enhancement (full-length Xenopus IRBP; [1]): 2.58 ± 0.17
- Kd (full-length Xenopus IRBP; [2]): 280 ± 70 nM
- Binding sites (N), Quenching (full-length Xenopus IRBP; quenching of protein fluorescence by 9-AS, ex 280 nm, em 340 nm): 0.18 ± 0.29
- Kd (full-length Xenopus IRBP; quenching of protein fluorescence by 9-AS, ex 280 nm, em 340 nm, read-out: Kd, Quenching): 290 ± 110 nM
SMILES: CCCCCCCCCC(CCCCCCCC(=O)O)OC(=O)c1c2ccccc2cc2ccccc12 (centres unmarked) [9-AS, 9-(9-anthroyloxy) stearic acid]
- Binding sites (N), Enhancement (Xenopus IRBP Module 2; [1]): 1.49 ± 0.15
- Kd (Xenopus IRBP Module 2; [2]): 250 ± 80 nM
- Binding sites (N), Quenching (Xenopus IRBP Module 2; [3]): 0.93 ± 0.06
- Kd (Xenopus IRBP Module 2; [4]): 130 ± 20 nM
